What was measured:
[1] = NOD mouse model of type I diabetes; cited from earlier work
[2] = reviewed in Cetkovic-Cvrlje and Ucken, 2004; cited from earlier work
[3] = Changelian et al., 2003; cited from earlier work
JAK2 = target: T1, JAK2 (Homo sapiens, UniProt O60674); assay: kinobeads assay (competition with affinity matrix in mixed Molt4/Ramos cell lysate, dot blot detection), JAK2; type: binding; conditions: activity level
T1 construct: endogenous in cells; host or cells: Mixed Molt4 / Ramos cell lysate (1:2)
T1 sequence (O60674 whole entry): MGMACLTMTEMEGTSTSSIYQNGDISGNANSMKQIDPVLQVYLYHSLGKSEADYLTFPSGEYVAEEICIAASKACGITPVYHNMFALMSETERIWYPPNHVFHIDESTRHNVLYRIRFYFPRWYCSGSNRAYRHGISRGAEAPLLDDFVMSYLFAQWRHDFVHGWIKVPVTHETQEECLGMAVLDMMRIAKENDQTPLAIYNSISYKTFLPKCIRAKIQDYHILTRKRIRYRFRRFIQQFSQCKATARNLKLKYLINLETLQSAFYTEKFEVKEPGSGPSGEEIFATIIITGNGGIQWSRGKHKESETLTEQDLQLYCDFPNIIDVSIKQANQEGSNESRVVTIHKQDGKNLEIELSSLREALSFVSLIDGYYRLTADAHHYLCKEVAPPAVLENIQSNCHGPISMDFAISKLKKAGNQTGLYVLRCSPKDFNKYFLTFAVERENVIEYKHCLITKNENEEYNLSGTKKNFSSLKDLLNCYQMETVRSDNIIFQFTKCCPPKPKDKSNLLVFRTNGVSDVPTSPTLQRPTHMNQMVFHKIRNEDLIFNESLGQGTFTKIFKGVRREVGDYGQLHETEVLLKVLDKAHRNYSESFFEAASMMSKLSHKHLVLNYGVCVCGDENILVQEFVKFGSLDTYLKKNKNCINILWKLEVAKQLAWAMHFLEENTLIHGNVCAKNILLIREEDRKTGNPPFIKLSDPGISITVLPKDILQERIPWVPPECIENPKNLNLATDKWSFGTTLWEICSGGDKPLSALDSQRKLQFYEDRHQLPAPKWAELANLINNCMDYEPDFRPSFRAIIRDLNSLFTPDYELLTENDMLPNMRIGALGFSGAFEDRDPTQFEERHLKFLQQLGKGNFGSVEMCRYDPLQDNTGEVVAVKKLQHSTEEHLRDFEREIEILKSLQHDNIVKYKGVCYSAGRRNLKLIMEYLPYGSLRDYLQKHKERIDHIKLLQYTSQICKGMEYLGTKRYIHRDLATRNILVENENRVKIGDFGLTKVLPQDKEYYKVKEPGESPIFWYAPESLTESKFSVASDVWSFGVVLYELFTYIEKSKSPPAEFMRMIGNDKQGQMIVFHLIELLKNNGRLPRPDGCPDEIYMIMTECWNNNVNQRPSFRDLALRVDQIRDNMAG
Protocol: (§1) The compounds of the present invention as described in the previous examples were tested in a kinobeads assay as described for ZAP-70 (WO-A 2007/137867). Briefly, test compounds (at various concentrations) and the affinity matrix with the immobilized aminopyrido-pyrimidine ligand 24 were added to cell lysate aliquots and allowed to bind to the proteins in the lysate sample. After the incubation time the beads with captured proteins were separated from the lysate. Bound proteins were then eluted and the presence of, JAK2 and JAK3 was detected and quantified using specific antibodies in a dot blot procedure and the Odyssey infrared detection system. Dose response curves for individual kinases were generated and IC50 values calculated. Kinobeads assays for ZAP-70 (WO-A 2007/137867) and for kinase selectivity profiling (WO-A 2006/134056) have been previously described.
(§2) 5× DP buffer: 250 mM Tris-HCl pH 7.4, 25% Glycerol, 7.5 mM MgCl2, 750 mM NaCl, 5 mM Na3VO4; filter the 5× DP buffer through a 0.22 μm filter and store in aliquots at −80° C. The 5× DP buffer is diluted with H2O to 1× DP buffer containing 1 mM DTT and 25 mM NaF.
(§3) Stock solutions of test compounds were prepared in DMSO. In a 96 well plate 30 μl solution of diluted test compounds at 5 mM in DMSO were prepared. Starting with this solution a 1:3 dilution series (9 steps) was prepared. For control experiments (no test compound) a buffer containing 2% DMSO was used.
(§4) Molt4 cells (ATCC catalogue number CRL-1582) and Ramos cells (ATCC catalogue number CRL-1596) were grown in 1 litre Spinner flasks (Integra Biosciences, #182101) in suspension in RPMI 1640 medium (Invitrogen, #21875-034) supplemented with 10% Fetal Bovine Serum (Invitrogen) at a density between 0.15×10^6 and 1.2×10^6 cells/ml. Cells were harvested by centrifugation, washed once with 1× PBS buffer (Invitrogen, #14190-094) and cell pellets were frozen in liquid nitrogen and subsequently stored at −80° C. Cells were homogenized in a Potter S homogenizer in lysis buffer: 50 mM Tris-HCl, 0.8% NP40, 5% glycerol, 150 mM NaCl, 1.5 mM MgCl2, 25 mM NaF, 1 mM sodium vanadate, 1 mM DTT, pH 7.5. One complete EDTA-free tablet (protease inhibitor cocktail, Roche Diagnostics, 1873580) per 25 ml buffer was added. The material was dounced 10 times using a mechanized POTTER S, transferred to 50 ml falcon tubes, incubated for 30 minutes on ice and spun down for 10 min at 20,000 g at 4° C. (10,000 rpm in Sorvall SLA600, precooled). The supernatant was transferred to an ultracentrifuge (UZ)-polycarbonate tube (Beckmann, 355654) and spun for 1 hour at 100.000 g at 4° C. (33.500 rpm in Ti50.2, precooled). The supernatant was transferred again to a fresh 50 ml falcon tube, the protein concentration was determined by a Bradford assay (BioRad) and samples containing 50 mg of protein per aliquot were prepared. The samples were immediately used for experiments or frozen in liquid nitrogen and stored frozen at −80° C.
(§5) Cell lysate (approximately 50 mg protein per plate) was thawed in a water bath at room temperature and then kept on ice. To the thawed cell lysate 1× DP 0.8% NP40 buffer containing protease inhibitors (1 tablet for 25 ml buffer; EDTA-free protease inhibitor cocktail; Roche Diagnostics 1873580) was added in order to reach a final protein concentration of 5 mg/ml total protein. The diluted cell lysate was stored on ice. Mixed Molt4/Ramos lysate was prepared by combining one volume of Molt4 lysate and two volumes of Ramos lysate (ratio 1:2).
(§6) To a 96 well filter plate (Multiscreen HTS, BV Filter Plates, Millipore #MSBVN1250) were added per well: 100 μl affinity matrix (3% beads slurry), 3 μl of compound solution, and 50 μl of diluted lysate. Plates were sealed and incubated for three hours in a cold room on a plate shaker (Heidolph tiramax 1000) at 750 rpm. Afterwards the plate was washed twice with 230 μl washing buffer (1× DP 0.4% NP40). […]

JAK3 = target: T2, JAK3 (Homo sapiens, UniProt P52333); assay: kinobeads assay (competition with affinity matrix in mixed Molt4/Ramos cell lysate, dot blot detection), JAK3; type: binding; conditions: activity level
T2 construct: endogenous in cells; host or cells: Mixed Molt4 / Ramos cell lysate (1:2)
T2 sequence (P52333 1-1124): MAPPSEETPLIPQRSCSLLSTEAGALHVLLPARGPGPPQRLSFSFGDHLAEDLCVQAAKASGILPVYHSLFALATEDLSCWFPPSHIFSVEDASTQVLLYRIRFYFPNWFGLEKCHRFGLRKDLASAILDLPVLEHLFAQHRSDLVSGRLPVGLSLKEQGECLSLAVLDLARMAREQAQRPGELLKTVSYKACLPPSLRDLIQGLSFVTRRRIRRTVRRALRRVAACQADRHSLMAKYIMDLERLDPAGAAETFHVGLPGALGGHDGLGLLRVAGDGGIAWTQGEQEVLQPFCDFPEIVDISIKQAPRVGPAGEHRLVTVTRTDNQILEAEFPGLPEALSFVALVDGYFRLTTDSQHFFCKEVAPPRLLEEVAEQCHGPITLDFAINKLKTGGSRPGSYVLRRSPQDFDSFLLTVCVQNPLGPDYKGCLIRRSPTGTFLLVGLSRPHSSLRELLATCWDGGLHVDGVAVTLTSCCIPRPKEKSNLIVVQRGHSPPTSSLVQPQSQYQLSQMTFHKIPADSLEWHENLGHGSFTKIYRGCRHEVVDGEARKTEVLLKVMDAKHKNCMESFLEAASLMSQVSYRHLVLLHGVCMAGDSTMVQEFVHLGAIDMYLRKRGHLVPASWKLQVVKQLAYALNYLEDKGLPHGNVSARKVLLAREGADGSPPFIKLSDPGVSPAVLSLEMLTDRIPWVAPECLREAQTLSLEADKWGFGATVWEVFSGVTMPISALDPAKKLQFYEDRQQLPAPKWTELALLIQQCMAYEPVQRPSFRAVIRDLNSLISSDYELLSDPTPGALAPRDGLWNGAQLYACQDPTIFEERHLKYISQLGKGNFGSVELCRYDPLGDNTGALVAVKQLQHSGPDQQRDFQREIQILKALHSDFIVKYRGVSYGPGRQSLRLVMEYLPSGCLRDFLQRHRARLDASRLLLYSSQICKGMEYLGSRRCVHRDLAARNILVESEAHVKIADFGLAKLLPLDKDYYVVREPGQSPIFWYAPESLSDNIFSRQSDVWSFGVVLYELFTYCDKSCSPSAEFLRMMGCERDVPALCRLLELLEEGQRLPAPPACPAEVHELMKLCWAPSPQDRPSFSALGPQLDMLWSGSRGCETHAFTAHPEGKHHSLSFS
Protocol: as §1, §2, §3, §4, §5, §6

IC50 (JAK2)	IC50 (JAK3)	SMILES	spontaneous autoimmune diabetes development [1]	severity of GVHD [2]	efficacy in an animal model of organ transplantation [3]
–	–	COc1cc2ncnc(Nc3ccc(O)cc3)c2cc1OC [JANEX-1]	prevent spontaneous autoimmune diabetes development	attenuate the severity of GVHD	–
–	–	C[C@@H]1CCN(C(=O)CC#N)C[C@@H]1N(C)c1ncnc2[nH]ccc12 [CP-690,550]	–	–	show efficacy
100 to 1000 nM	< 100 nM	CS(=O)(=O)Nc1ccccc1Nc1nc(Nc2cc(-n3cnnn3)ccc2F)ncc1Cl [Example 7, N-(2-(5-chloro-2-(2-fluoro-5-(1H-tetrazol-1-yl)phenylamino)pyrimidin-4-ylamino)phenyl)methanesulfonamide]	–	–	–
100 to 1000 nM	< 100 nM	CS(=O)(=O)Nc1ccccc1Nc1nc(Nc2cc(-n3cnnn3)ccc2F)ncc1Br [Example 12, N-(2-(5-bromo-2-(2-fluoro-5-(1H-tetrazol-1-yl)phenylamino)pyrimidin-4-ylamino)phenyl)methanesulfonamide]	–	–	–
> 10000 nM	100 to 1000 nM	CCNC(=O)c1ccc(F)c(Nc2ncc(Cl)c(Nc3ccccc3NS(=O)(=O)CC(F)(F)F)n2)c1 [Example 44, 3-(5-chloro-4-(2-(2,2,2-trifluoroethylsulfonamido)phenylamino)pyrimidin-2-ylamino)-N-ethyl-4-fluorobenzamide]	–	–	–
> 10000 nM	< 100 nM	CCN(CC)C(=O)c1ccc(F)c(Nc2ncc(Cl)c(Nc3ccccc3NS(=O)(=O)CC)n2)c1 [Example 40, 3-(5-chloro-4-(2-(ethylsulfonamido)phenylamino)pyrimidin-2-ylamino)-N,N-diethyl-4-fluorobenzamide]	–	–	–
> 10000 nM	100 to 1000 nM	CC(C)NC(=O)c1ccc(F)c(Nc2ncc(F)c(Nc3ccccc3NS(C)(=O)=O)n2)c1 [Example 31]	–	–	–
> 10000 nM	< 100 nM	CCNC(=O)c1ccc(F)c(Nc2ncc(Cl)c(Nc3ccccc3NS(=O)(=O)CC)n2)c1 [Example 39, 3-(5-chloro-4-(2-(ethylsulfonamido)phenylamino)pyrimidin-2-ylamino)-N-ethyl-4-fluorobenzamide]	–	–	–
> 10000 nM	< 100 nM	Cc1cccc(Nc2nc(Nc3cc(-n4cnnn4)ccc3F)ncc2F)c1NS(C)(=O)=O [Example 4, N-(2-(5-fluoro-2-(2-fluoro-5-(1H-tetrazol-1-yl)phenylamino)pyrimidin-4-ylamino)-6-methylphenyl)methanesulfonamide]	–	–	–
> 10000 nM	< 100 nM	COCCNC(=O)c1ccc(F)c(Nc2ncc(Cl)c(Nc3ccccc3NS(C)(=O)=O)n2)c1 [Example 53, 3-(5-chloro-4-(2-(methylsulfonamido)phenylamino)pyrimidin-2-ylamino)-4-fluoro-N-(2-methoxyethyl)benzamide]	–	–	–
100 to 1000 nM	< 100 nM	CS(=O)(=O)Nc1c(F)cccc1Nc1nc(Nc2cc(-n3cnnn3)ccc2F)ncc1Cl [Example 55, N-(2-(5-chloro-2-(2-fluoro-5-(1H-tetrazol-1-yl)phenylamino)pyrimidin-4-ylamino)-6-fluorophenyl)methanesulfonamide]	–	–	–
> 10000 nM	100 to 1000 nM	CS(=O)(=O)Nc1ccccc1Nc1nc(Nc2ccc(N3CCOCC3)cc2F)ncc1F [Example 2, N-(2-(5-fluoro-2-(2-fluoro-4-morpholinophenylamino)pyrimidin-4-ylamino)phenyl)methanesulfonamide]	–	–	–
